{"source": "patent US9707155B2", "about": "“Delamination resistant pharmaceutical glass containers containing active pharmaceutical ingredients” (Corning Incorporated, priority 2013, dated 2017)", "key": {"[1]": {"settings": "cited from earlier work"}, "[2]": {"system": "tumor cell lines", "settings": "cited from earlier work"}, "[3]": {"experiment": "Stability after storage conditions", "format": "physicochemical", "settings": "under the chosen conditions"}, "[4]": {"system": "blood glucose", "experiment": "Action profile in dogs (blood glucose as percentage of initial level)", "format": "in vivo", "settings": "blood glucose at 1 h, 2 h, 3 h, 5 h, 7h", "method": "An action profile of Lyxumia and/or Lyxumia and Lantus (in combination) after subjection to the storage conditions described in Example 6 is carried out by comparing insulin glargine in dogs with human insulin-Arg^B31-Arg^B32-OH and basal H insulin as an NPH (neutral protamine Hagedorn) composition containing about 10 μg of Zn^2+.\nBlood glucose is measured as a percentage of the initial level at the following time points: 1 h, 2 h, 3 h, 5 h, 7h."}, "[5]": {"settings": "in vivo; cited from earlier work"}, "[6]": {"system": "patients with acute coronary syndromes", "settings": "compared to unfractionated heparin and eptifibatide; cited from earlier work"}, "[7]": {"system": "tumor xenografts (WM9)", "experiment": "Melanoma xenografts (WM9) in nude mice", "format": "in vivo", "settings": "5 days treatment, versus untreated mice", "method": "Tumor cells (5×10^6) are injected into the bilateral flanks of female […] nude mice (6-8 weeks of age). The tumors are measured with calipers using the formula: V=[…], where V is the volume, L is the largest diameter, and I is the perpendicular diameter of the tumor. When the volume of the tumor nodules reaches 100-150 mm^3, mice are randomly assigned to control or treatment groups (6-9 mice/group).\nTherapeutic treatment with a combination of SAR2405550/BSI-201 and the alkylating agent TMZ was initiated when tumor xenografts (WM9) in nude mice reach 100 mm^3 in volume and treatment was continued for 5 days. In specific instances, the tumor volume is measured for assessment of therapeutic effect."}, "[8]": {"system": "patients with active rheumatoid arthritis", "settings": "week 12, subcutaneous, relative to placebo, patients receiving methotrexate; cited from earlier work"}, "[9]": {"biological_target": "T1, human IL-6R (Homo sapiens, UniProt P08887)", "T1 construct": "expressed in transfected cells; host or cells: COS-7 cells", "T1 sequence (P08887 20-468)": "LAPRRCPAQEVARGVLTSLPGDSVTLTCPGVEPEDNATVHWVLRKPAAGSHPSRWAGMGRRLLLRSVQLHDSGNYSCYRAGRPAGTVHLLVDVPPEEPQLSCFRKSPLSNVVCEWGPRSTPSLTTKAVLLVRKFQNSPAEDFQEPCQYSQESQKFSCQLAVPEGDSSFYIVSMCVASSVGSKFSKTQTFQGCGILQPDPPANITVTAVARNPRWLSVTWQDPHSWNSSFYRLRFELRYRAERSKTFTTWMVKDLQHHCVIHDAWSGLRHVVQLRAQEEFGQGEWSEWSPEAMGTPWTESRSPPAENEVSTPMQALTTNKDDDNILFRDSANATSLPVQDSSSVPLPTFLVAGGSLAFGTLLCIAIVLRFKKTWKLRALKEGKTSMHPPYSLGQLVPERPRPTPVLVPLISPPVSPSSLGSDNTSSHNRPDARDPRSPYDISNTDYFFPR", "experiment": "Binding to COS-7 cells transfected with human IL-6R (fluorescent intensity)", "format": "cell-based", "method": "COS-7 cells (1×10^6) are inoculated into 10 mL of the medium on a 10 cm dish. Next day, the old medium is replaced with 20 mL of new medium per dish. After 3.42 mL of Opti-MEM (Invitrogen, Carlsbad, Calif., USA) is placed in a polystyrene tube, 180 μL of Trans-IT LTI reagent (Takara Bio, Shiga, Japan) is added and mixed well. The mixture (3.6 mL) is left at room temperature for 15 min. After 60 μg of human IL-6R expression vector hIL-6R/pcDNA3.1 (+) or control (empty) vector pcDNA3.1 (+) (Invitrogen) is added to 5.4 mL of Opti-MEM and mixed well with the above mixture, the resulting solution (9 mL) is allowed to stand at room temperature for 15 min, divided in 3 mL aliquots on three dishes, and incubated at 37 8 C under 5% CO2 for 3 days."}, "[10]": {"system": "IL-6-dependent myeloma cell line, KPMM2", "experiment": "IL-6 signaling mediated by mIL-6R, KPMM2 growth", "format": "cell-based", "method": "IL-6-dependent myeloma cell line, KPMM2 (1×10^5 cells/mL) are cultured with IL-6 (0-100 ng/mL) and sarilumab (0-100 μg/mL) in a CO2 incubator for 4 days in a 96-well plate. After incubation, the amount of [^3H]-thymidine uptake into cells is determined with a scintillation counter."}, "[11]": {"system": "BAF-h130 cells", "experiment": "IL-6 signaling mediated by sIL-6R, BAF-h130 proliferation ([3H]-thymidine uptake)", "format": "cell-based, murine", "settings": "IL-6 100 ng/mL, sIL-6R 500 ng/mL, 4 days", "method": "BAF-h130 cell is a human gp130-transfected murine pro-B cell, BAF-B03. BAF-h130 cells (1×10^4) are cultured with IL-6 (100 ng/mL) (Genzyme-techne, Minneapolis, Minn., USA), sIL-6R (500 ng/mL) or sarilumab (0.01-100 Ag/mL) at 37° C. under 5% CO2 for 4 days in 96-well flat-bottomed plates. The culture is performed in quadruplicate. [^3H]-thymidine (10 μL/well, 3.7 MBq/mL) (Amercham Pharmacia Biotech, Piscataway, N.J., USA) is added to each well 5 h before the completion of culture. After incubation, the amount of [^3H]-thymidine uptake into cells is determined with a scintillation counter (1450 MicroBeta) (Wallace Oy, Turku, Finland).\nBaF-h130 cells could grow by the co-addition of IL-6 (100 ng/ml) and sIL-6R (500 ng/mL), but not by IL-6 or sIL-6R alone. […] Sarilumab suppresses the IL-6/sIL-6R complex-induced proliferation of human gp130-transfected cell, BAF-h130."}}}
{"molecule": "NC(=O)c1ccc(I)c([N+](=O)[O-])c1", "note": "[Iniparib, 4-iodo-3-nitrobenzamide]", "values": [{"measurement": "solubility", "setting": "[1]", "value": "soluble"}, {"measurement": "cell cycle arrest", "setting": "[2]", "value": "inducing cell cycle arrest in the G2/M phase"}, {"measurement": "potentiation of DNA damaging modalities", "setting": "[2]", "value": "potentiating the cell cycle effects of DNA damaging modalities"}, {"measurement": "γ-H2AX induction", "setting": "[2]", "value": "inducing γ-H2AX"}]}
{"molecule": "21^A-Gly-30^Ba-L-Arg-30^Bb-L-Arg-human insulin [Gly^A21-Human Insulin-Arg^B31-Arg^B32-OH]", "values": [{"measurement": "stability", "setting": "[3]", "value": "stable for a long period of time"}, {"measurement": "basal action profile", "setting": "[4]", "value": "same advantageous basal profile as human insulin-Arg^B31-Arg^B32-OH"}]}
{"molecule": "COC(=O)[C@H](Cc1cccc(C(=N)N)c1)[C@@H](C)NC(=O)c1ccc(-c2cc[n+]([O-])cc2)cc1", "note": "(mixture of isomers) [Otamixaban, Methyl(2R,3R)-2-{3-[amino(imino)methyl]benzyl}-3-{[4-(1-oxidopyridin-4-yl)benzoyl]amino}butanoate]", "values": [{"measurement": "half-life", "setting": "[5]", "value": "~30", "unit": "min"}, {"measurement": "combined end point of death or myocardial infarction", "setting": "[6]", "value": "significant reduction"}]}
{"molecule": "Cn1nnc2c(C(N)=O)ncn2c1=O", "note": "[TMZ]", "values": [{"measurement": "tumor growth", "setting": "[7]", "value": "No significant differences in tumor growth"}]}
{"molecule": "Sarilumab: fully human monoclonal antibody that selectively targets the interleukin-6 receptor (IL-6R) (antibody, chains of the INN, looked up, V domains shown) VH: EVQLVESGGGLVQPGRSLRLSCAASRFTFDDYAMHWVRQAPGKGLEWVSGISWNSGRIGYADSVKGRFTISRDNAENSLFLQMNGLRAEDTALYYCAKGRDSFDIWGQGTMVTVSS VL: DIQMTQSPSSVSASVGDRVTITCRASQGISSWLAWYQQKPGKAPKLLIYGASSLESGVPSRFSGSGSGTDFTLTISSLQPEDFASYYCQQANSFPYTFGQGTKLEIK", "values": [{"measurement": "ACR20", "setting": "[8]", "value": "significant and clinically relevant improvements"}, {"measurement": "fluorescent intensity in COS-7 cells expressing human IL-6R", "setting": "[9]; IL-6R transfectant", "value": "increases the fluorescent intensity"}, {"measurement": "fluorescent intensity in COS-7 mock cells", "setting": "[9]; control vector pcDNA3.1 (+) transfectant", "value": "not in COS-7 mock cells"}, {"measurement": "growth of KPMM2", "setting": "[10]", "value": "suppress the growth"}, {"measurement": "proliferation of BAF-h130 cells induced by IL-6/sIL-6R complex", "setting": "[11]", "value": "suppresses the proliferation of BAF-h130 cells induced by the complex of IL-6 and sIL-6R in a concentration-dependent manner"}]}
